Read-outs that look alike come from different tables or passages of the source.
Assays:
[1] = system: Photobacterium sp. JH-ISH-224 α2-6-sialyltransferase Psp26ST(15-501)-His6, wild type, SEQ ID NO: 23; conditions: apparent, donor CMP-Neu5Ac, cited from earlier work
[2] = target: Photobacterium sp. JH-ISH-224 α2-6-sialyltransferase Psp2,6ST(15-501)-His6, wild type, SEQ ID NO: 23 (Photobacterium sp. JT-ISH-224, UniProt A8QYL1); assay: Donor hydrolysis kinetics (CMP-Neu5Ac hydrolysis), wild-type Psp2,6ST(15-501)-His6; format: biochemical; conditions: apparent, 20° C., 10 min, Tris-HCl pH 8.0
Experimental: (§1) Procedure for Kinetic Analysis of Donor Hydrolysis by His6-Pd2,6ST(16-497), Psp26ST(15-501)-His6 and its A235D and A366G Mutants
(§2) The kinetics study for the donor hydrolysis activity of His6-Pd2,6ST(16-497) was carried out at 37° C. for 20 min in Tris-HCl buffer (200 mM, pH 8.0). The kinetics study for the donor hydrolysis activities of Psp26ST(15-501)-His6 and its A235D mutant was carried out at 20° C. for 10 min in Tris-HCl buffer (200 mM, pH 8.0). All reactions were performed in duplicate in a total volume of 10 μL containing varied concentrations of CMP-Neu5Ac (10, 20, 40, 60, 80 and 100 mM) and the enzyme (6 μM). Reactions were stopped by adding 10 μL of ethanol and then centrifuged. The supernatants were analyzed by a P/ACETM capillary electrophoresis (CE) system equipped with a photodiode array (PDA) detector (Beckman Coulter, Inc., Fullerton, Calif.). CE conditions were as follows: 75 μm i.d. capillary, 25 KV/80μÅ, 5 s vacuum injections, monitored at 200 nm and 254 nm, the running buffer used was sodium tetraborate (25 mM, pH 9.4). Apparent kinetic parameters were obtained by fitting the experimental data (the average values of duplicate assay results) into the Michaelis-Menten equation using Grafit 5.0.

[3] = system: Photobacterium sp. JH-ISH-224 α2-6-sialyltransferase Psp26ST(15-501)-His6 A366G mutant, SEQ ID NO: 2; assay: Sialyltransferase kinetics, Psp26ST(15-501)-His6 A366G mutant; format: biochemical; conditions: apparent, varied CMP-Neu5Ac
Experimental: Reactions were carried out in duplicate at 20° C. for 20 minutes in a total volume of 10 μL in a proper buffer at the optimal pH according to the pH profile of the wild-type enzyme (see, Ding, 2011, supra). When LacβMU was used as an acceptor, the conditions were: Tris-HCl buffer (200 mM, pH 8.0), enzyme (0.3 μM), varied concentrations of LacβMU (0.1, 0.25, 0.4, 1.0, 2.0, 4.0, and 6.0 mM) with a fixed concentration of CMP-Neu5Ac (1.0 mM) or varied concentrations of CMP-Neu5Ac (0.1, 0.25, 0.4, 1.0, 2.0, 4.0, and 6.0 mM) with a fixed concentration of LacβMU (1.0 mM). When GalNAcα2AA was used as an acceptor, the conditions were: NaOAc-HOAc buffer (200 mM, pH 5.0), enzyme (6 μM), varied concentrations of GalNAcα2AA (0.5, 0.8, 1.0, 2.0, 4.0, 8.0, and 10.0 mM) and a fixed concentration of CMP-Neu5Ac (4.0 mM) or varied concentrations of CMP-Neu5Ac (0.5, 1.0, 2.0, 4.0, 5.0, 8.0, and 10.0 mM) with a fixed concentration of GalNAcα2AA (1.0 mM). When GalNAcαSer was used as an acceptor, the conditions were: Tris-HCl buffer (200 mM, pH 8.0), enzyme (0.6 μM), varied concentrations of GalNAcαSer (0.1, 0.25, 0.5, 1.0, 2.0, 4.0, 8.0, and 10.0 mM) and a fixed concentration of CMP-Neu5Ac (2.0 mM). When GalNAcαThr was used as an acceptor, the conditions were: Tris-HCl buffer (200 mM, pH 8.0), enzyme (3.0 μM), varied concentrations of GalNAcαThr (0.5, 1.0, 2.0, 4.0, 10.0, 20.0, 40.0, 60.0 mM) and a fixed concentration of CMP-Neu5Ac (4.0 mM). Results analysis was performed using the HPLC system as described above for sialyltransferase activity assays. Apparent kinetic parameters were obtained by fitting the experimental data (the average values of duplicate assay results) into the Michaelis-Menten equation using Grafit 5.0.

[4] = substrate: CC(=O)N[C@H]1[C@H]([C@H](O)[C@H](O)CO)O[C@](OP(=O)(O)OC[C@H]2O[C@@H](n3ccc(N)nc3=O)[C@H](O)[C@@H]2O)(C(=O)O)C[C@@H]1O; assay: Donor hydrolysis kinetics (CMP-Neu5Ac hydrolysis), His6-Pd2,6ST(16-497); format: biochemical, Photobacterium damselae; conditions: other: apparent, 37° C., 20 min, Tris-HCl pH 8.0, pH 2.6
Experimental: as §1, §2

[5] = GalNAcα2AA 1.0 mM, NaOAc-HOAc pH 5.0, 20° C.
[6] = LacβMU 1.0 mM, Tris-HCl pH 8.0, 20° C.

Molecule: CC(=O)N[C@H]1[C@H]([C@H](O)[C@H](O)CO)O[C@](OP(=O)(O)OC[C@H]2O[C@@H](n3ccc(N)nc3=O)[C@H](O)[C@@H]2O)(C(=O)O)C[C@@H]1O [CMP-Neu5Ac, cytidine 5′-monophosphate N-acetylneuraminic acid]
- Km ([1]; acceptor GalNAcα2AA): 3900 ± 400 µM
- kcat ([1]; acceptor GalNAcα2AA): 0.08 ± 0.0033 s⁻¹
- Km ([1]; acceptor LacβMU): 620 µM
- kcat ([1]; acceptor LacβMU): (1.4 ± 0.1) × 10^2 min^−1
- kcat [2]: (2.9 ± 0.3) × 10^2 min^−1
- Km [3, 5]: 3300 ± 400 µM
- kcat [3, 5]: 0.0983 ± 0.0033 s⁻¹
- Km [3, 6]: 630 µM
- kcat [3, 6]: (1.3 ± 0.1) × 10^2 min^−1

B1: Photobacterium damselae α2-6-sialyltransferase His6-Pd2,6ST(16-497) (Photobacterium damselae) (protein)
chain: CNSDNTSLKETVSSNSADVVETETYQLTPIDAPSSFLSHSWEQTCGTPILNESDKQAISFDFVAPELKQDEKYCFTFKGITGDHRYITNTTLTVVAPTLEVYIDHASLPSLQQLIHIIQAKDEYPSNQRFVSWKRVTVDADNANKLNIHTYPLKGNNTSPEMVAAIDEYAQSKNRLNIEFYTNTAHVFNNLPPIIQPLYNNEKVKISHISLYDDGSSEYVSLYQWKDTPNKIETLEGEVSLLANYLAGTSPDAPKGMGNRYNWHKLYDTDYYFLREDYLDVEANLHDLRDYLGSSAKQMPWDEFAKLSDSQQTLFLDIVGFDKEQLQQQYSQSPLPNFIFTGTTTWAGGETKEYYAQQQVNVINNAINETSPYYLGKDYDLFFKGHPAGGVINDIILGSFPDMINIPAKISFEVLMMTDMLPDTVAGIASSLYFTIPADKVNFIVFTSSDTITDREEALKSPLVQVMLTLGIVKEKDVLFWA
- kcat [4]: 3.67 ± 0.333 s⁻¹

Source: US9938510B2, “Photobacterium sp. alpha-2-6-sialyltransferase variants” (The Regents of the University of California, priority 2014, dated 2018)
